Data taken from patent US3939263A, “Methods of combatting insects and acarina using oxygenated derivatives of S-(tert-bulythio)methyl O,O-diethyl phosphorodithioate and phosphorothioate” (priority 1974, dated 1976).

Legend:
Mexican Bean Beetle = assay: Mexican Bean Beetle, dipped lima bean leaves; type: in vivo, Epilachna varivestis Mulsant; settings: Epilachna varivestis, read-out: % Kill, Mexican Bean Beetle
Source text: Mexican Bean Beetle -- Epilachna varivestis Mulsant
Sieva lima bean plants (two per pot) with primary leaves 3 to 4 inches long, are dipped in a 35/65% water/acetone mixture containing 100 ppm. of test compound and set in the hood to dry. One leaf is removed from a plant and placed in a 4-inch petri dish containing a moist filter paper on the bottom and 10 last-instar larvae (13 days from hatching). The day after treatment, another leaf is removed from the plant and fed to the larvae after removing the remains of the original leaf. Two days after treatment, the third leaf is fed to the larvae, this usually being the last needed. The fourth leaf is used on the third day after treatment if the larvae have not finished feeding. The test is now set aside and held until adults have emerged, usually in about nine days after treatment began. After emergence is complete, each dish is examined for dead larvae, pupae or adults; deformed pupae or adults; larval-pupal intermediates or pupal-adult intermediates; or any other interference with normal molting, transformation and emergence of pupae or adults.

Two-Spotted Spider Mite = assay: Two-Spotted Spider Mite, dipped infested lima bean plants; type: in vivo, Tetranychus urticae (Koch); settings: Tetranychus urticae, read-out: % Kill, Two-Spotted Spider Mite
Description: Two-Spotted Spider Mite -- Tetranychus urticae (Koch)
Sieva lima bean plants, with primary leaves 3 to 4 inches long, are infested with about 100 adult mites per leaf 4 hours before use in this test, in order to allow egg-laying before treatment. The infested plants are dipped for 3 seconds with agitation into a 35/65% water/acetone mixture containing 1000 ppm. of test compound and the plants set in the hood to dry. After 2 days at 80°F., and 50% r.h., the adult mite mortality is estimated on one leaf under a 10X stereoscopic microscope. The other leaf is left on the plant an additional 5 days and then examined at 10X power to estimate the kill of eggs and of newly hatched nymphs, giving a measure of ovicidal and residual action, respectively.

Tarnished Plant Bug = assay: Tarnished Plant Bug, treated cotton leaf, 2-day mortality; type: in vivo, Lygus Lineolaris (Palisot de Beauvois); settings: Lygus lineolaris, 48 h, 2 days, read-out: % Kill, Tarnished Plant Bug
Description: Tarnished Plant Bug -- Lygus Lineolaris (Palisot de Beauvois)
A cotton plant with two true leaves expanded is dipped for 3 seconds with agitation in a 35/65% water/acetone mixture containing 100 ppm. of test compound and set in the hood to dry. One leaf is removed and placed in an 8-ounce waxed cup containing a wet 2-inch dental wick and 10 adult tarnished plant bugs, and a clear plastic lid is snapped on. After 2 days at 80°F., 50% r.h., mortality counts are made.

Southern Armyworm = assay: Southern Armyworm, dipped lima bean leaf; type: in vivo, Spodoptera eridania (Cramer); settings: Spodoptera eridania, 48 h, 2 days, read-out: % Kill, Southern Armyworm
Description: Southern Armyworm -- Spodoptera eridania (Cramer)
A Sieva lima bean plant with just the primary leaves expanded to 3 to 4 inches is dipped for 3 seconds with agitation in a 35/65% water/acetone mixture containing 1000 ppm. of test compound and set in the hood to dry. Following this, one leaf is placed in a 4-inch petri dish which has a moist filter paper in the bottom and ten third-instar armyworm larvae about three-eighths inch long. The dish is covered and held at 80°F., and 50% r.h. After 2 days, mortality counts and estimates of the amount of feeding are made. Compounds showing partial kill and/or inhibition of feeding are held for an extra day for further observations.

Housefly = Housefly feeding test in sugar water; type: in vivo, Musca domestica Linneaus; settings: Musca domestica; 5 ppm in sugar water; counts after 1 day and 3 days; read-out: % Kill, Housefly
Description: Housefly -- Musca domestica Linneaus
Groups of 25 adult female houseflies three to 5 days old are lightly anesthetized with CO2, placed in wide-mouthed pint mason jars, and covered with a screen cap. The test compound is a 100 ppm. 35/65% water/acetone solution. Two milliliters of this is pipetted into a 10-dram vial and diluted to 40 ml. with 10% sugar solution, giving a final concentration of 5 ppm. in sugar water. The mouth of the vial is covered with a single layer of cheesecloth, inverted and placed on the screen cap of the fly jar, so that the flies can feed on the solution through the screen. Mortality counts are made after 1 day and 3 days at 80°F., 50% r.h.

Cotton Boll Weevil [1] = assay: Cotton Boll Weevil, treated cotton cotyledon, 2-day mortality; type: in vivo, Anthonomus grandis Boheman; settings: 48 h, 2 days, read-out: % Kill, Cotton Boll Weevil
Description: Cotton Boll Weevil -- Anthonomus grandis Boheman
A cotton plant with cotyledons expanded is dipped for 3 seconds with agitation in 35/65% aqueous acetone mixture containing 100 ppm. of test compound and set in the hood to dry. One cotyledon is removed from the plant and placed in a 4-inch petri dish containing a moist filter paper on the bottom and 10 adult weevils. After 2 days at 80°F., and 50% r.h., mortality counts are made, prodding each insect to distinguish dead ones from those "playing dead."

[2] = tested on: Western Potato Leafhopper; assay: Western Potato Leafhopper, dipped lima bean leaf; type: in vivo, Empoasca abrupta Say; settings: 48 h, 2 days, read-out: % Kill, Western Potato Leafhopper
Source text: Western Potato Leafhopper -- Empoasca abrupta Say
A Sieva lima bean plant with the primary leaf expanded to 3 to 4 inches is dipped into a 35/65% water/acetone mixture containing 100 ppm. of test compound and set in the hood to dry. A 1-inch piece of the tip of one leaf is cut off and placed in a 4-inch petri dish with a moist filter paper in the bottom. From three to 10 second-instar nymphs are tapped from the culture plants into the test dish and rapidly covered. Mortality counts are made after 2 days at 80°F., and 50% r.h.

Cotton Boll Weevil [3] = assay: Soil Systemic Insecticide test on cotton, Cotton Boll Weevil; type: in vivo, Anthonomus grandis Boheman; settings: 48 h; 100 ppm in soil; cotton leaves after three weeks; 2 days; read-out: % Kill, Systemic Insecticide, Cotton Boll Weevil
Description: Soil Systemic Insecticide Tests
Corn and cotton seed (three seeds each) are planted in treated soil (containing about 100 ppm. of the compound). Thirty milliliters of treated soil are placed in a peat container 5 × 5 × 5.5 cm., and three seeds each of corn and cotton planted. The containers are filled with an additional 30 ml. of treated soil. The treatments are removed to the greenhouse maintained about 26°C. without supplementary light. Water is supplied as needed. After three weeks, foliage of the corn is clipped and placed in glass petri dishes (90 mm. × 10 mm.) with moist filter (9 cm. Whatman No. 1) paper and ten third-instar southern armyworm (Spodoptera eridania Cramer) larvae about 8 mm. long. The dishes are covered and placed in the holding room with constant light at 26.7°C. and 60% r.h. for 2 days, when mortality counts are made.
The cotyledonary leaves of the cotton are clipped after three weeks and placed in glass petri dishes (90 mm. × 10 mm.) with moist filter (9 cm. Whatman No. 1) paper and ten adult boll weevils (Anthonomus grandis Boheman). The dishes are covered, placed in the holding room with constant light at 26.7°C. and 60% r.h. for 2 days, when mortality counts are made.

SMILES	mortality at 10 ppm (Mexican Bean Beetle) [%]	mortality at 100 ppm (Mexican Bean Beetle) [%]	mortality at 100 ppm (Two-Spotted Spider Mite) [%]	mortality at 1000 ppm (Two-Spotted Spider Mite) [%]	mortality at 100 ppm (Tarnished Plant Bug) [%]	mortality at 100 ppm (Southern Armyworm) [%]	mortality at 1000 ppm (Southern Armyworm) [%]	mortality at 5 ppm (Housefly) [%]	mortality at 100 ppm (Cotton Boll Weevil [1]) [%]	mortality at 10 ppm [2] [%]	mortality at 100 ppm [2] [%]	mortality at 100 ppm (Cotton Boll Weevil [3]) [%]
CCOP(=O)(OCC)SC[S+]([O-])C(C)(C)C (stereo not drawn) [O,O-diethyl S-(tert-butylsulfinyl)methyl Phosphorothioate]	100	100	100	100	100	100	100	100	90	100	100	100
CCOP(=S)(OCC)SC[S+]([O-])C(C)(C)C (stereo not drawn) [O,O-diethyl S-(tert-butylsulfinyl)methyl phosphorodithioate, reference compound]	80	90	100	100	100	70	100	100	100	100	100	100
CCOP(=S)(OCC)SCS(=O)(=O)C(C)(C)C [O,O-diethyl S-(tert-butylsulfonyl)methyl Phosphorodithioate]	–	100	100	100	100	100	100	100	90	–	–	90
CCOP(=O)(OCC)SCS(=O)(=O)C(C)(C)C [O,O-diethyl S-(tert-butylsulfonyl)methyl Phosphorothioate]	70	90	100	100	100	100	100	100	90	100	100	100
